Measured values reported in article PMC7883289, “Synthesis of Paeonol-Ozagrel Conjugate: Structure Characterization and In Vivo Anti-Ischemic Stroke potential” (Frontiers in Pharmacology, 2021).

Columns and labels:
[1] = system: middle cerebral artery occlusion (MCAO) rats; assay: HE staining, histopathologic changes in brain cortex of MCAO rats; format: in vivo; details: 24 h after treatment, POC 4.5 mg/kg iv, compared with the model group, n = 3
Procedure: Male Sprague Dawley (SD) rats weighing among 220 g–230 g (Anhui Medicine University, Hefei, China; certificate number: SCXK20190,003) were housed under ad libitum access to food and water with a standardized light-dark cycle condition (25 ± 2°C, 12–hour light/dark cycle). All the experimental protocols were performed in accordance with the Institutional Animal Care and Use Committee of Anhui University of Chinese Medicine (Animal ethics number: AHUCM–rats–2019001). We used the minimal number of study animals (n = 6 rats in each group for different experiments). The rats were fastened upon the operating table in a supine position after being anesthetized with 2% pelltobarbitalum natricum (50 mg/kg). After disinfection of the skin within close proximity of the operative region, the right common carotid artery (CCA), external carotid artery (ECA) and internal carotid artery (ICA) were exposed with blunt dissection. The CCA was temporarily ligated and the ECA were permanently ligated ([Liu et al., 2016]). A nylon monofilament surgical thread was introduced into the ICA to block the MCA when the blunted distal end met resistance. After 2 h of occlusion, reperfusion was accomplished to restore blood supply to the MCA area by removing the filament ([Li et al., 2009]; [Zhai et al., 2017]). […] Rats were split randomly into five groups, including the sham, model, paeonol, OS and POC group. […]

[2] = Solubility of POC in solvents (described in words); format: physicochemical
[3] = system: PC12 cells; assay: Cell viability, CCK8 method; format: cell-based, Rat; details: 24 h, CCK8, tested 37.5 to 1,200.0 μM
Procedure: Rat PC12 pheochromocytoma cells were obtained from the Cell Resource Center, Peking Union Medical College. PC12 cells were grown as monolayers in tissue culture flasks at 37°C under a humidified, 5% CO2 atmosphere in the high–glucose Dulbecco’s Modified Eagle Medium (DMEM) medium.
The CCK8 (MedChemExpress, United States) method was used to estimate the cytotoxic effects of POC. Before treatment, the cells were seeded onto 96-well culture plates at an appropriate density according to the experimental protocol. After 24 h, the medium was replaced with fresh medium containing varying concentrations (37.5, 75.0, 150.0, 300.0, 600.0, 1,200.0 μM) from the POC serial dilutions. And PC12 was allowed to grow for another 24 h. After incubation, the cell viability was evaluated using the CCK8 assay. The absorbance was read at 450 nm on a microplate reader. These cell viability experiments were made in triplicate.

[4] = system: middle cerebral artery occlusion (MCAO) rats; assay: Evaluation of neurological deficit (Longa score) in MCAO rats; format: in vivo; details: 24 h after reperfusion, single iv dose 2 h after reperfusion: paeonol and OS 3 mg/kg, POC 4.5 mg/kg, n = 6
Procedure: Male Sprague Dawley (SD) rats weighing among 220 g-230 g (Anhui Medicine University, Hefei, China; certificate number: SCXK20190,003) were housed under ad libitum access to food and water with a standardized light-dark cycle condition (25 ± 2°C, 12-hour light/dark cycle). All the experimental protocols were performed in accordance with the Institutional Animal Care and Use Committee of Anhui University of Chinese Medicine (Animal ethics number: AHUCM-rats-2019001). We used the minimal number of study animals (n = 6 rats in each group for different experiments). The rats were fastened upon the operating table in a supine position after being anesthetized with 2% pelltobarbitalum natricum (50 mg/kg). After disinfection of the skin within close proximity of the operative region, the right common carotid artery (CCA), external carotid artery (ECA) and internal carotid artery (ICA) were exposed with blunt dissection. The CCA was temporarily ligated and the ECA were permanently ligated ([Liu et al., 2016]). A nylon monofilament surgical thread was introduced into the ICA to block the MCA when the blunted distal end met resistance. After 2 h of occlusion, reperfusion was accomplished to restore blood supply to the MCA area by removing the filament ([Li et al., 2009]; [Zhai et al., 2017]). […] Rats were split randomly into five groups, including the sham, model, paeonol, OS and POC group. […] Neurological deficit was evaluated 24 h after reperfusion (blinded to experimenters). […] The rating score was assessed by the following standard: no neurological deficit, 0; failure to extend left forepaw fully, one; spontaneous circling to the left, two; falling to the left, three; inability to walk spontaneously and coma of consciousness, 4. […] Neurological scores for each group were calculated using six rats according to a sample size calculation (α err prob = 0.05, 1-β err prob = 0.95) and references ([Katayama et al., 2017]; [[…] al., 2019]; [Zheng et al., 2019]).

- solubility in ethyl acetate ([2]; ethyl acetate): slightly soluble
- solubility in methanol and ethanol ([2]; methanol and ethanol): easily soluble
- solubility in water ([2]; water): almost insoluble or insoluble
SMILES: COc1ccc(C(C)=O)c(OC(=O)C=Cc2ccc(Cn3ccnc3)cc2)c1 [POC, paeonol-ozagrel conjugate]
- histopathologic changes in brain cortex (HE) [1]: only marginal neuronal cells damage
- concentration with no viability loss / no toxic effect [3]: less than 75 μM
- neurological deficits score (Longa, 0-4) [4]: 1.50 ± 0.55
